CC(C)(C)[C@H](O)[C@H](Cc1ccc(Cl)cc1)n1cncn1 (racemic)
solubility (mole fraction)
Conditions	in 1,4-dioxane	in acetone	in acetonitrile	in ethanol	in ethyl acetate	in isopropanol	in n-butanol	in n-propanol	in toluene
278.15 K	0.0156	0.0135	0.00239	0.00749	0.00783	0.00707	0.0134	0.0124	0.0416
280.65 K	0.0168	0.0145	0.00267	0.0081	0.00895	0.00766	0.0141	0.0131	0.0426
283.15 K	0.0183	0.0155	0.00295	0.00885	0.0104	0.00835	0.0151	0.0139	0.0437
285.65 K	0.0203	0.0167	0.00331	0.00979	0.0118	0.00912	0.0162	0.0146	0.045
288.15 K	0.0223	0.0181	0.00366	0.0107	0.0133	0.00985	0.0173	0.0155	0.0462
290.65 K	0.0248	0.0194	0.00405	0.0117	0.0153	0.0108	0.0184	0.0163	0.0473
293.15 K	0.0271	0.0209	0.00449	0.0128	0.0175	0.0117	0.0198	0.0172	0.0484
295.65 K	0.0296	0.0223	0.00495	0.0138	0.0201	0.0127	0.0211	0.0182	0.0496
298.15 K	0.0324	0.0239	0.00544	0.0149	0.0228	0.0138	0.0224	0.0192	0.0508
300.65 K	0.0351	0.0253	0.00596	0.016	0.0255	0.0149	0.0238	0.0203	0.0521
303.15 K	0.0381	0.0269	0.00653	0.0173	0.029	0.0161	0.0251	0.0215	0.0533
305.65 K	0.0412	0.0284	0.00709	0.0185	0.0324	0.0173	0.0266	0.0228	0.0546
308.15 K	0.044	0.0301	0.00776	0.02	0.0359	0.0185	0.0279	0.0241	0.0557
310.65 K	0.0475	0.0317	0.00846	0.0214	0.0395	0.0197	0.0295	0.0253	0.057
313.15 K	0.0512	0.0335	0.00916	0.0229	0.0444	0.021	0.0308	0.0265	0.0584
315.65 K	0.0551	0.0353	0.01	0.0246	0.0497	0.0225	0.0324	0.0278	0.0597
318.15 K	0.0593	0.0372	0.011	0.0265	0.0552	0.0242	0.0341	0.0291	0.061

— BigSolDB 2.1
